These are literature values, as cited in PMC12162873, “Modulating phosphatase DUSP22 with BML-260 ameliorates skeletal muscle wasting via Akt independent JNK-FOXO3a repression” (EMBO Molecular Medicine, 2025).

In one data set the test system is JNK. Also noted: method as in ref [19] Bennett et al, 2001. The note with it: ref [19] Bennett et al, 2001; cited from earlier work.
A further data set relates to aldose reductase. Also noted: method as in Ramirez and Borja, 2008. The conditions noted are these: drug for diabetic neuropathy; ref Ramirez and Borja, 2008; cited from earlier work.

As to `Oc1c2ccccc2c2c3c(cccc13)N=N2` [SP600125], the “selectivity versus a range of kinases and enzymes tested” value in the data set on JNK was > 20 -fold.

For `CC(/C=C1\SC(=S)N(CC(=O)O)C1=O)=C\c1ccccc1` [Epalrestat], the safety and tolerability entry in the data set with aldose reductase was “safe, well-tolerated”.
